Row | melting point | SMILES
1 | 103 to 105 °C | Cc1ccc([N+](=O)[O-])cc1Nc1ccc(C(F)(F)F)cn1
2 | 190 to 191 °C | c1snc2c1Sc1csnc1S2
3 | 79 to 80 °C | CS(=O)(=O)Oc1cc(N)c(F)cc1Cl
4 | > 280 °C | CCn1c(=O)c2[nH]c(/C=C/c3cc(C(F)(F)F)cc(C(F)(F)F)c3)nc2n(CC)c1=O
5 | 207 to 209 °C | CC1Cc2c(n(-c3ccccc3)c3ncccc3c2=O)O1 (stereo not drawn)
6 | 203 to 204 °C | CC(=O)NC[C@H]1CN(c2ccc(N3CCC(=O)N(C)CC3)c(F)c2)C(=O)O1
7 | 124 to 126 °C | COC(=O)c1cc(S(N)(=O)=O)ccc1S(=O)(=O)CCCO
8 | 168 °C | CCN1C(=O)C(O)=C(c2c(C)cc(C)cc2C)C1=O
9 | 107 to 108 °C | CCn1c(C)c(C(C)=O)c(N)c1-c1ccccc1
10 | 54 to 56 °C | COC(=O)CC(C(=O)OC)c1ccccc1 (stereo not drawn)
11 | 91 to 93 °C | CCOC(=O)C=C1c2ccccc2C=C(OC)c2sccc21
12 | 100 °C | COC(=O)CCCOc1cc([N+](=O)[O-])c(CO)cc1OC
13 | 192 °C | COc1cccc(-c2nc(N)c(C#N)nc2-c2ccc(=O)n(C(C)C)c2)c1
14 | 117 to 119 °C | NC(=O)c1c(Cl)ccc(Br)c1Cl
15 | 201 to 206 °C | O=C(CCc1ccccc1)N[C@H]1CC[C@H](c2ccc(O)cc2)CC1
16 | 265 °C | CCN(CC)c1ccc(-n2cc(-c3ccc(C4=C(C#N)C(=C(C#N)C#N)OC4(C)C)cc3)nn2)cc1
17 | 103 to 104 °C | COc1ccc(NN=C(Sc2ccc(CF)cc2)C(C)=O)cc1
18 | 138 to 142 °C | O=C(c1ccc(F)cc1)c1c(-c2ccc(OCCN3CCCC3)cc2)sc2c(O)cccc12
19 | 238 to 241 °C | O=C1c2ccccc2C(=O)N1CCSc1nccc(NC(=S)NCC(F)(F)F)n1
20 | 164 to 166 °C | C[C@@H]1CN(Cc2ccc(COc3cccc4c3CN(C3CCC(=O)NC3=O)C4=O)cc2)C[C@H](C)O1 (stereo partly drawn)
21 | 79 to 80.5 °C | CCCCCCCCCCCCC(=O)CC#CCCCC(=O)O
22 | 143 to 144 °C | CCCC(C)(C)C(=O)O[C@H]1C[C@H](O)C=C2C=C[C@H](C)[C@H](CC[C@@H]3C[C@@H](O)CC(=O)O3)[C@H]21
23 | 72.2 to 73.3 °C | COc1ccc(Cc2nnsc2-c2cccs2)cc1
24 | 121 to 122 °C | C[C@H](NC(=O)OCc1ccccc1)C(=O)N[C@@H](Cc1ccccc1)C(=O)O

Row | melting point | SMILES
25 | 189 to 190 °C | CSc1nccc(Oc2ccc(NC(=O)c3cc(F)cc(N4CCOCC4)c3)c3ccccc23)n1
26 | 81 to 83 °C | CCN(CC)CCCNC(=O)Cn1cnc(-c2ccccc2)c1-c1ccccc1
27 | 87 to 89 °C | COc1ccnc(CO)c1OC
28 | > 300 °C | Cc1nc2cc3c(cc2[nH]1)NC(=O)C3(C)C
29 | 52 to 53 °C | COc1cc(C(=O)C#CC(=O)OCC=C(C)C)cc(OC)c1OC
30 | 252 to 254 °C | CSc1cccc(CNC(=O)c2nc3scc(COCc4ccc(C(=O)O)cc4)c3c(=O)[nH]2)c1
31 | 70 to 72 °C | Brc1ccc2c(c1)CC(Cc1ccccc1)O2 (stereo not drawn)
32 | 179 to 181 °C | COC(=O)N(C)C1CN(C(=O)Nc2ccc(OC(F)(F)F)cc2)NC1c1ccc(Cl)cc1 (stereo not drawn)
33 | 194 °C | COCCNC1CCN(c2ccc(NC(=O)c3cnn(-c4ccc(Cl)cc4)c3C)cc2C#N)CC1
34 | 128 to 130 °C | CCc1nn(CC(=N)NO)c(CC)c1Oc1cc(Cl)cc(Cl)c1
35 | 152 °C | CC(=O)Nc1ccc(C(=O)c2cc(-c3ccc(NC(C)=O)cc3)c(N3CCOCC3)s2)cc1
36 | 74 to 77 °C | CC(C)(C)c1cc(OCC(=O)OCCN2C(C)(C)CC(OC(=O)COc3ccc(O)c(C(C)(C)C)c3)CC2(C)C)ccc1O
37 | 152 to 153 °C | CCN(c1ccc(C)c2cc(-c3ncc(C(C)O)s3)[nH]c12)S(=O)(=O)c1cccs1 (stereo not drawn)
38 | 134 to 135 °C | O=C(CCc1ccccc1)N[C@H](Cc1ccc(C(F)(F)F)cc1)[C@@H](O)c1ccoc1 (racemic)
39 | 93 °C | CC1C(=O)N(c2ccccc2OCCCCBr)Sc2ccccc21 (stereo not drawn)
40 | 206 to 208 °C | COc1ccc(CN2C(=O)C(NC(=O)Nc3ccccc3)C(=O)N(CCC(C)C)c3ccccc32)cc1 (stereo not drawn)
41 | 119 to 120 °C | O=C(Nc1ccc(CBr)c(C(F)(F)F)c1)C(F)(F)F
42 | 93 to 94 °C | CCOC(=O)NCCCC1OCC(c2cccc3ccccc23)CO1 (stereo not drawn)
43 | 205 to 207 °C | COC1NC(=O)CC2CC1c1ccccc12 (stereo not drawn)
44 | 205 to 208 °C | CN1CCNC1=NC(=S)Nc1ccccc1
45 | 218 to 220 °C | O=C(O)CCCN1C(=O)c2ccc(C(=O)O)cc2C1=O
46 | 63 to 65 °C | COC(=O)c1cc(C)sc1NC(=O)C(C)C
47 | 181 °C | CCOC(=O)CN(C(=O)CNC(=O)Nc1cccc(C)c1)c1ccccc1
48 | 195 to 200 °C | O=C(O)CN=c1sc2ccccc2s1

Row | melting point | SMILES
49 | 142 to 143 °C | Nc1c(C(=O)c2cccc(Br)c2)[nH]c2cc(Cl)ccc12
50 | 202 to 204 °C | COc1cc(C#Cc2cnc(N)nc2N)cc(OC)c1OC
51 | 203 to 206 °C | COc1ccc(CN[C@@H](C(=O)O)[C@@H](O)[C@H](Cc2ccccc2)NC(=O)OC(C)(C)C)cc1
52 | 131 to 135 °C | COc1cc(-n2nc3n(c2=S)CCSC3)c(Cl)cc1Cl
53 | 65 to 67 °C | Cc1ccc(OC2=C(Oc3ccc(C)c(C)c3)C(F)(F)C(F)(F)C2(F)F)cc1C
54 | 178 to 179 °C | Nc1ccc(F)c(-c2ccc3ncccc3c2)c1F
55 | 162 °C | CCCCc1cc2c3n(ccc-2n1)CC(C)=N3
56 | 90 to 92 °C | c1ccc(OC(Oc2ccccc2)Oc2c3ccccc3cc3ccccc23)cc1
57 | 70 to 73 °C | Cc1cc(C)n2nc(C)cc2n1
58 | 158 to 160 °C | Cc1c(CO)cc([N+](=O)[O-])c(Cl)c1[N+](=O)[O-]
59 | 147 °C | CS(=O)c1cc(OCC(O)CNC2CCN(c3ccc(NS(=O)(=O)c4ccc(Br)cc4)cn3)CC2)ccc1O (stereo not drawn)
60 | 54 to 56 °C | CCCCCCCCCCCCCCCCC12CCC3=C(CCc4cc(OC)ccc43)C1CCC2=O (stereo not drawn)
61 | 140 to 142 °C | CC(C)CC(=O)c1c(-c2ccc3cc(OCC(=O)O)cc(Br)c3c2)oc2ccccc12
62 | 70.5 to 73.5 °C | CCOC(=O)c1ccc(SC)c(Cl)c1N(CC)S(C)(=O)=O
63 | 179 °C | CC(C)c1ccc(N(Cc2ccc(N(C)C)cc2)C(=O)C2CCOc3c(C#N)cccc32)cc1 (stereo not drawn)
64 | 174 to 179 °C | CC(C)(C)OC(=O)N1CCC(c2ccc3nc(-c4ccc(C(F)(F)F)cc4)oc3c2)CC1
65 | 52 to 57 °C | Cc1ccc2oc(Br)c(-c3ccccc3)c2c1
66 | 69 to 71 °C | CN(C)c1cccc(/C=C/c2c(F)cccc2F)c1
67 | 84 to 87 °C | COC(=O)c1cc2cc(-c3ccc(C)cc3)ccc2nc1C
68 | 200 to 203 °C | O=C(N[C@@H](Cc1c[nH]cn1)C(=O)OCc1ccsc1)C(Cc1cccc2ccccc12)Cc1cccc2ccccc12
69 | 139 to 140 °C | CCC(CC)(NC(C)=O)c1ccc(CN2CCN(c3ccccc3)CC2)cc1
70 | 128 °C | CCCCc1nc(SCCCCCC(=O)O)c(C(=O)O)n1Cc1cc2c(cc1Cl)OCO2
71 | 112 °C | CCCCN1CCC(CNC(=O)c2cc(Cl)cc3c2OCCO3)C(O)C1 (stereo not drawn)
72 | 58 to 60 °C | CC(=O)c1ccc2c(c1)CCc1ccccc1-2

Row | melting point | SMILES
73 | 179 °C | O=C(O)C1=CS[C@@H]2/C(=C/c3ccc4c(c3)N(Cc3ccccc3)C(=O)c3ccccc3O4)C(=O)N12
74 | 90 to 91 °C | CC(=O)Oc1ccccc1C(=O)OCCSS(C)(=O)=O
75 | 61 to 63 °C | CCN(C)c1ccc(Cl)nn1
76 | 164 °C | O=C(OCCn1c(-c2ccccc2)nc2cc(CN3CCN(C(c4ccccc4)c4ccccc4)CC3)ccc21)c1ccccc1
77 | 178 to 179 °C | COC(=O)CNC(=O)c1ncccc1S
78 | 139 °C | CC(C)(C)OC(=O)c1nn(-c2ccc(Cl)cc2Cl)c(-c2ccc(Cl)cc2)c1CBr
79 | 178 to 180 °C | Cn1nc2cccc(OCCF)c2c1S(N)(=O)=O
80 | 49 to 51 °C | Cc1ccc([N+](=O)[O-])c(OCc2ccccc2)c1
81 | 146 to 147 °C | O=C1NC(=C2CCCCC2)Sc2ccccc21
82 | 92 to 93 °C | O=Cc1c(Cl)ccc(Br)c1F
83 | 164 °C | Nc1ccc(OCCCN2C(=O)c3ccccc3C2=O)cc1[N+](=O)[O-]
84 | 189 to 192 °C | CCn1cc(C(=O)NCc2ccc(Cl)cc2)c(=O)c2sccc21
85 | 75 °C | COC(=O)CSCCn1cc(C)c(=O)[nH]c1=O
86 | 41 to 44 °C | CCc1cc([N+](=O)[O-])cc([N+](=O)[O-])c1Cl
87 | 80.5 to 81.5 °C | CC(C)Oc1ccc(NC(=S)NCc2ccsc2)cc1
88 | 117 to 120 °C | CCCC(=O)C(=CNc1ccc(OCC)c(C)n1)C(=O)OCC
89 | 107 to 108 °C | COc1cc(C#N)ccc1OCCCN1CCC(c2noc3cc(F)ccc23)CC1
90 | 199 °C | Cc1cc(C)cc(NCc2ccc3nc(NCCCN4CCOCC4)n(Cc4nc(C)ccc4O)c3c2)c1
91 | 194 to 196 °C | NC(=O)/C=C/c1cnoc1-c1ccccc1
92 | 157 °C | N#CC(Cl)Cc1ccc(C(=O)O)cc1 (stereo not drawn)
93 | 249 to 250 °C | FC(F)(F)c1ccc2c(Nc3ccncc3)noc2c1
94 | 144 to 145 °C | CCOc1cc(COc2nn(Cc3ccccc3)cc2C=O)ccc1OCc1nc(-c2ccco2)oc1C

Row | SMILES | melting point
95 | COC(=O)c1ccc2cc(-c3ccc4c(c3)C(C)(C)CCC4(C)C)n(C)c2c1 | 156 °C
96 | O=c1c2ccccc2[nH]c2c(OCCCCN(CCCl)CCCl)cccc12 | 119 °C
97 | CCN(C(=O)C1CC1)c1cccc(-c2ccnc3c(C(=O)c4ccco4)cnn23)c1 | 182 to 184 °C
98 | COC(=O)c1sccc1-c1cc2c(cc1C)C(C)(C)CCC2(C)C | 89 to 90 °C
99 | OC1CCCN2CCCCC12 (stereo not drawn) | 70 °C
100 | COc1ccc2nc(N3CCNCC3)ccc2c1 | 95 to 97 °C
101 | N#Cc1cc(NCc2ccncc2)n(-c2c(Cl)cc(C(F)(F)F)cc2Cl)n1 | > 300 °C
102 | CC(C)(C)c1cc([N+](=O)[O-])cc(C(C)(C)C)c1O | 167 to 168 °C
103 | NCCc1ccc(N)cn1 | 42 to 45 °C

— a melting point compilation (Tetko et al.; mined from patent text by program, amines drawn as free bases though some values may be those of a salt)
